Values quoted from earlier work as cited in US12029733B2, “Treatment of sepsis and related inflammatory conditions by local neuromodulation of the autonomic nervous system” (Tulavi Therapeutics, Inc., priority 2016, dated 2024).

Tests used:
FFA1 = FFA1 (Homo sapiens, UniProt O14842); conditions: marked *: FFA1 ERK activation (Smith et al. 2009) / aequorin reporter Ca2+ signaling (Kotarsky et al. 2003)
GPR120 = molecular target: T1, GPR120 (Homo sapiens, UniProt Q5NUL3); conditions: fluorescent indicator measurement of Ca2+ mobilization
T1 sequence (Q5NUL3 1-361): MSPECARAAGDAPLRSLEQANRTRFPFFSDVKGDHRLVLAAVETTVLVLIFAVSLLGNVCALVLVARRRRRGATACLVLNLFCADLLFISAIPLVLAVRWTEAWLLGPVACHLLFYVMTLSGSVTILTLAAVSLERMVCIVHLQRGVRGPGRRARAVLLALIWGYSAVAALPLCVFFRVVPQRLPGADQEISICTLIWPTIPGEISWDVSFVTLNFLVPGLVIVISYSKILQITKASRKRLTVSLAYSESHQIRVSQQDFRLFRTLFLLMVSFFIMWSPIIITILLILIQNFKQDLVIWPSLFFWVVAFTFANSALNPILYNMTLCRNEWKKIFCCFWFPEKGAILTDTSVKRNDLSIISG

KCC2 = molecular target: T2, KCC2 (Homo sapiens, UniProt Q9H2X9)
T2 sequence (Q9H2X9 1-1139): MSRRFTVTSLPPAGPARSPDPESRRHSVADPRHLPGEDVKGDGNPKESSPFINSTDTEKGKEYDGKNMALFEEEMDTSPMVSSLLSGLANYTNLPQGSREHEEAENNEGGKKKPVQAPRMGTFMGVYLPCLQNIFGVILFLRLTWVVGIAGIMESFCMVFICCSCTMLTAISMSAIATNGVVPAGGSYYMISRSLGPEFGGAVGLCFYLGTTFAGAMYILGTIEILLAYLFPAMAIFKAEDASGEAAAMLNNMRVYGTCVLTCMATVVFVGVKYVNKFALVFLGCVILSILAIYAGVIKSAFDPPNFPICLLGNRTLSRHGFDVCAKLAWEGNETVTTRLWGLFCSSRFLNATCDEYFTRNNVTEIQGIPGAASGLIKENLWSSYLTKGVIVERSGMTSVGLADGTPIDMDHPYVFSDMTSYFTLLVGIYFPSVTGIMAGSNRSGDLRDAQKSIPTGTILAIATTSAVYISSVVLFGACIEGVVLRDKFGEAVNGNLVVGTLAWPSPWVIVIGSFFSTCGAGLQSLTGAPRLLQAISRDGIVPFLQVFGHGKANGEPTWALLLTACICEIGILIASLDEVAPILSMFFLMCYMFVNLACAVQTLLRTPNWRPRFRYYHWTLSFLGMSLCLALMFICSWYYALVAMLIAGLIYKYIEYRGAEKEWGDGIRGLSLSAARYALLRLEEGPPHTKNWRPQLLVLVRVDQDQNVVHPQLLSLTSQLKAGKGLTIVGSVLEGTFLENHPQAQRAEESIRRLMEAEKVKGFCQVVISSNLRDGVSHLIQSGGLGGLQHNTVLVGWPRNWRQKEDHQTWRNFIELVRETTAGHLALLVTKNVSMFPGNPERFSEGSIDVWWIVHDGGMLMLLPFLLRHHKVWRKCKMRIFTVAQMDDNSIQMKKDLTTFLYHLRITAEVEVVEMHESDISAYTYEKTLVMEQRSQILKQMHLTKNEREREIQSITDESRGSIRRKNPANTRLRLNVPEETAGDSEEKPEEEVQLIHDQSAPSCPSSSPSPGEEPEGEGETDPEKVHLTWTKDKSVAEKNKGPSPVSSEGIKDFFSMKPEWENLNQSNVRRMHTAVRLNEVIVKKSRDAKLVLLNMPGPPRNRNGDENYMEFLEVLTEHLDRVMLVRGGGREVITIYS

[1] = in vivo

Sequence of FFA1 (O14842 whole entry): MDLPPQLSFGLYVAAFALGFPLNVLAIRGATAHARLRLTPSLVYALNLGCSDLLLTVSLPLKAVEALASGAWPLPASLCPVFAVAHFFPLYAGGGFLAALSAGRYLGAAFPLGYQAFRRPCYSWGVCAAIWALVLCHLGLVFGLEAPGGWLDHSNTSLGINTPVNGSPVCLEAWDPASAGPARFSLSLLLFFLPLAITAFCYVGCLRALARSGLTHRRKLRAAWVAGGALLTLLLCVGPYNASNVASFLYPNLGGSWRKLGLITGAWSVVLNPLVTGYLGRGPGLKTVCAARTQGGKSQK

Compound	FFA1 pEC50 (FFA1)	GPR120 pEC50 (GPR120)	further results
CC(C)(CCCCCCCCCCC(C)(C)CC(=O)O)CC(=O)O [MEDICA16]	5.5-5.9*	<5.0	–
CCCCCCCC/C=C\CCCCCCCC(=O)O [Oleic acid (C18:l), Oleic acid]	–	4.5	–
CCCCCCCCCCCCCCCC(=O)O [Palmitic Acid (C16:0), Palmitic Acid]	–	4.3	–
CN(CCOc1ccc(CC2SC(=O)NC2=O)cc1)c1ccccn1 (stereo not shown) [Rosiglitazone]	5.0-5.6*	–	–
Cc1csc(NC(=O)CSc2ccc(-c3ccccc3)nn2)n1 [VU0240551]	–	–	selectivity KCC2 over NKCC1 (KCC2): selective for KCC2 over NKCC1
N=C(N)NC(=O)c1cnn(-c2cccc3ncccc23)c1C1CC1 [Zoniporide]	–	–	neurotoxic effects [1]: causes peripheral sensory axonopathy
